Assay results taken from patent US8563744B2, “3-amino-benzo [D] isothiazole dioxide derivatives and their use as pesticides” (Syngenta Crop Protection, LLC, priority 2008, dated 2013).

Assays:
Assay type in all cases: in vivo
Myzus persicae [1] = assay: B1: Myzus persicae (green peach aphid), mixed population, sachet test; conditions: 144 h, 12.5 ppm test compound in 30% sucrose solution, parafilm sachet, 6 days after infestation, read-out: control of Myzus persicae (mortality, feeding activity)
Description: B1: Myzus persicae (green peach aphid) (mixed population, sachet test)
Each well of a 24-well microtiter plate is filled with 0.6 ml 30% sucrose solution, containing 12.5 ppm of the test compounds. For producing the sachets, the wells are covered with streched parafilm and infested with a mixed population of Myzus persicae. 6 days after the infestation, samples are checked for mortality (feeding activity).

Myzus persicae [2] = assay: B3: Myzus persicae (green peach aphid), mixed population, systemic/feeding activity, curative; conditions: 144 h, roots of infested pea seedlings placed in test solutions of 24 ppm, 6 days after introduction, read-out: control of Myzus persicae (mortality)
Text: B3: Myzus persicae (green peach aphid) (mixed population, systemic/feeding activity, curative)
Roots of pea seedlings, infested with an aphid population of mixed ages, are placed directly in the test solutions of 24 ppm. 6 days after introduction, samples are checked for mortality and special effects on the plant.

Myzus persicae [3] = assay: B2: Myzus persicae (green peach aphid), mixed population, feeding/residual contact activity, preventive; conditions: foliar, 144 h, sunflower leaf discs sprayed with test solutions of 200 ppm, aphid population of mixed ages, 6 days incubation, read-out: control of Myzus persicae (mortality)
Description: B2: Myzus persicae (green peach aphid) (mixed population, feeding/residual contact activity, preventive)
Sunflower leaf discs are placed on agar in a 24-well microtiter plate and sprayed with test solutions of 200 ppm. After drying, the leaf discs are infested with an aphid population of mixed ages. After an incubation period of 6 days, samples are checked for mortality and special effects (e.g. phytotoxicity).

Structure (SMILES): CC(C)N1C(=N)c2cccc(Br)c2S1(=O)=O [Compound P2.1, 7-bromo-2-isopropyl-1,1-dioxo-1,2-dihydro-1λ^6-benzo[d]isothiazol-3-ylideneamine]
- mortality at 12.5 ppm (Myzus persicae [1]): ≥ 80%

Structure (SMILES): NC1=NS(=O)(=O)c2c(Br)cccc21 [Compound P1.1, 7-bromo-1,1-dioxo-1H-1λ^6-benzo[d]isothiazol-3-ylamine]
- mortality at 24 ppm (Myzus persicae [2]): ≥ 80%
- mortality at 200 ppm (Myzus persicae [3]): ≥ 80%

Structure (SMILES): CNC1=NS(=O)(=O)c2c(F)cccc21 [Compound P1.15, (7-Fluoro-1,1-dioxo-1H-1λ^6-benzo[d]isothiazol-3-yl)-methyl-amine]
- mortality at 24 ppm (Myzus persicae [2]): ≥ 80%
- mortality at 200 ppm (Myzus persicae [3]): ≥ 80%
